Consider ten compounds from patent publication US20250195513A1, “DEGRADATION OF IRAK4 BY CONJUGATION OF IRAK4 INHIBITORS WITH E3 LIGASE LIGAND AND METHODS OF USE” (BeiGene, Ltd., priority 2022, published 2025).

Assay [1] has as its target T1, IRAK4 (Homo sapiens, UniProt Q9NWZ3).
T1 construct: endogenous in cells; host or cells: Karpas299
T1 sequence (Q9NWZ3 1-460): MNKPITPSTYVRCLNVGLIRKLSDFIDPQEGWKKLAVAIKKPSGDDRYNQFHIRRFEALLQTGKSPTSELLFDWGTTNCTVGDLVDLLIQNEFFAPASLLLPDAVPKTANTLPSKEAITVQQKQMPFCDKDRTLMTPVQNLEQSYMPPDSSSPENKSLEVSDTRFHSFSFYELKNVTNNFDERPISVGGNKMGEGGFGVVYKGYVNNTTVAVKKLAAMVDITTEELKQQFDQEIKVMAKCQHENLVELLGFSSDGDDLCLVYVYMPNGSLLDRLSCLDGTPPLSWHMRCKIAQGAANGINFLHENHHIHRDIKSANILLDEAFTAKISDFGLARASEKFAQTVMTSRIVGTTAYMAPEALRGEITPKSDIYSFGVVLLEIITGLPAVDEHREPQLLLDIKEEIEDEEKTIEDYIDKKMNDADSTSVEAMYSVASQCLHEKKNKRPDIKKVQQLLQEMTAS
The experiment in a line: IRAK4 Degradation Assay (Karpas299, HTRF/TR-FRET). The assay is classed as cell-based. The following applies: Karpas-299 cells. The procedure, abridged:
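Compound potency as DC50 (IC50) came from four-parameter fits of percent IRAK4 degradation. IRAK4 was measured by HTRF (665/620 nm) in lysates of Karpas299 cells seeded at 0.2 million per well. Cells had been treated with compound dilutions for 5 or 24 h.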
(Time-resolved FRET reads energy transfer from a long-lived donor to a nearby acceptor.)

Assay [2] has as its target T1, IRAK4. Description: IRAK4 Degradation Assay with Human Serum (Karpas299, HTRF/TR-FRET). Conditions: Karpas-299 in human serum, 24 hrs treatment; for DC50: read-out: IRAK4 degradtion with human serum assay DC50; for Dmax: read-out: IRAK4 degradtion with human serum assay Dmax (%). The assay is classed as cell-based. The procedure, abridged:
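Remaining IRAK4 measured by TR-FRET immunoassay on lysates of Karpas299 cells exposed 24 h to compound dilution series in human serum AB. DC50 derived from a Hill-slope fit of % degradation versus concentration.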

Where [3] appears, read: 5 h treatment, maximum percentage of degradation, read-out: IRAK4 in Karpas-299 (5 h) Dmax (%).
The mark [4] stands for this setting: 5 h treatment, read-out: IRAK4 in Karpas-299 (5 h) DC50.
The mark [5] stands for this setting: 24 h treatment, maximum percentage of degradation, read-out: IRAK4 in Karpas-299 (24 h) Dmax (%).
The mark [6] stands for this setting: 24 h treatment, read-out: IRAK4 in Karpas-299 (24 h) DC50.

For orientation: Dmax means the greatest extent of degradation seen. Usually DC50 stands for the concentration at which degradation of the target reaches its halfway point. On to `Cc1cc(C2CCC(=O)NC2=O)c(F)cc1[C@H]1C[C@H](N2CCN([C@H]3CC[C@H](n4cc5cc(NC(=O)c6ccc7cc(C#N)cnn67)c(C(C)(C)O)cc5n4)CC3)CC2)C1` (stereo partly drawn) [Example 297, 3-cyano-N-(2-((1R,4r)-4-(4-((1r,3R)-3-(4-(2,6-dioxopiperidin-3-yl)-5-fluoro-2-methylphenyl)cyclobutyl)piperazin-1-yl)cyclohexyl)-6-(2-hydroxypropan-2-yl)-2H-indazol-5-yl)pyrrolo[1,2-b]pyridazine-7-carboxamide], for which the Dmax at IRAK4 [1] (setting [3]) was determined as 96%; on IRAK4 [1] (setting [5]), 97%; on IRAK4 [2], 99%. Besides, the results for the DC50 on IRAK4 [1] (setting [4]), on IRAK4 [1] (setting [6]) and on IRAK4 [2] were 3.4 nM, 1.4 nM and 6 nM, respectively.
Consider `C[C@@H]1CN(CC2CN(c3cc(F)c([C@H]4CCC(=O)NC4=O)c(F)c3)C2)CCN1[C@H]1CC[C@H](n2cc3cc(NC(=O)c4ccc5cc(C#N)cnn45)c(C(C)(C)O)cc3n2)CC1` [Example 300, 3-cyano-N-(2-((1R,4r)-4-((R)-4-((1-(4-((R)-2,6-dioxopiperidin-3-yl)-3,5-difluorophenyl)azetidin-3-yl)methyl)-2-methylpiperazin-1-yl)cyclohexyl)-6-(2-hydroxypropan-2-yl)-2H-indazol-5-yl)pyrrolo[1,2-b]pyridazine-7-carboxamide], for which the figures for the Dmax on IRAK4 [1] (setting [5]) and on IRAK4 [2] were 96% and 102%, respectively. The DC50 at IRAK4 [1] (setting [6]) was 0.9 nM; on IRAK4 [2] it was 2.4 nM.
For `COC[C@@H]1CN([C@H]2CC[C@H](n3cc4cc(NC(=O)c5ccc6cc(C#N)cnn56)c(C(C)(C)O)cc4n3)CC2)CCN1C(=O)C1CN(c2cc(F)c(N3CCC(=O)NC3=O)c(F)c2)C1` [Example 410, 3-cyano-N-(2-((1S,4r)-4-((S)-4-(1-(4-(2,4-dioxotetrahydropyrimidin-1(2H)-yl)-3,5-difluorophenyl)azetidine-3-carbonyl)-3-(methoxymethyl)piperazin-1-yl)cyclohexyl)-6-(2-hydroxypropan-2-yl)-2H-indazol-5-yl)pyrrolo[1,2-b]pyridazine-7-carboxamide], in that order: 98%, 91%, 1.8 nM and 18 nM.
For `COc1cc(N2CC(C(=O)N3CCN([C@H]4CC[C@H](n5cc6cc(NC(=O)c7ccc8cc(C#N)cnn78)c(C(C)(C)O)cc6n5)CC4)CC3)C2)cc(F)c1N1CCC(=O)NC1=O` [Example 210, 3-cyano-N-(2-((1r,4r)-4-(4-(1-(4-(2,4-dioxotetrahydropyrimidin-1(2H)-yl)-3-fluoro-5-methoxyphenyl)azetidine-3-carbonyl)piperazin-1-yl)cyclohexyl)-6-(2-hydroxypropan-2-yl)-2H-indazol-5-yl)pyrrolo[1,2-b]pyridazine-7-carboxamide], the Dmax on IRAK4 [1] (setting [3]) stood at 97%; at IRAK4 [1] (setting [5]), 97%; on IRAK4 [2], 98%. Moreover, the 50% degradation concentration (DC50) at IRAK4 [1] (setting [4]) was 6.8 nM; at IRAK4 [1] (setting [6]) it was 3.3 nM; at IRAK4 [2] it was 7 nM.
As for `Cc1nc(C2CCC(=O)NC2=O)ccc1N1CC(N2CCN(C3CCC(n4cc5cc(NC(=O)c6ccc7cc(C#N)cnn67)c(C(C)(C)O)cc5n4)CC3)CC2)C1` (centres unmarked) [Example 426, 3-cyano-N-(2-((1r,4r)-4-(4-(1-(6-(2,6-dioxopiperidin-3-yl)-2-methylpyridin-3-yl)azetidin-3-yl)piperazin-1-yl)cyclohexyl)-6-(2-hydroxypropan-2-yl)-2H-indazol-5-yl)pyrrolo[1,2-b]pyridazine-7-carboxamide], the “IRAK4 in Karpas-299 (24 h) Dmax (%)” value on IRAK4 [1] (24 h treatment, maximum percentage of degradation) is reported as 95%. At IRAK4 [1] (setting [6]), the DC50 worked out at 5.5 nM. On IRAK4 [2], the “IRAK4 degradtion with human serum assay Dmax (%)” value came out at 95% and the DC50 was found to be 12 nM.
In the case of `Cc1nc(C2CCC(=O)NC2=O)ccc1N1CCC(N2CCC3(CCC(n4cc5cc(NC(=O)c6ccc7cc(C#N)cnn67)c(C(C)(C)O)cc5n4)CC3)CC2)CC1` (centres unmarked) [Example 427, 3-cyano-N-(2-(3-(1-(6-(2,6-dioxopiperidin-3-yl)-2-methylpyridin-3-yl)piperidin-4-yl)-3-azaspiro[5.5]undecan-9-yl)-6-(2-hydroxypropan-2-yl)-2H-indazol-5-yl)pyrrolo[1,2-b]pyridazine-7-carboxamide], the figures for the Dmax at IRAK4 [1] (setting [5]) and at IRAK4 [2] were 96% and 94%, respectively. Also, the DC50 came out at 2.9 nM at IRAK4 [1] (setting [6]) and 8.4 nM on IRAK4 [2].
`Cc1cc(N2CCC(N3CCN([C@H]4CC[C@H](n5cc6cc(NC(=O)c7ccc8cc(C#N)cnn78)c(C(C)(C)O)cc6n5)CC4)CC3)CC2)cc(C)c1[C@H]1CCC(=O)NC1=O` [Example 289, 3-cyano-N-(2-((1r,4r)-4-(4-(1-(4-((R)-2,6-dioxopiperidin-3-yl)-3,5-dimethylphenyl)piperidin-4-yl)piperazin-1-yl)cyclohexyl)-6-(2-hydroxypropan-2-yl)-2H-indazol-5-yl)pyrrolo[1,2-b]pyridazine-7-carboxamide]: the Dmax at IRAK4 [1] (setting [5]) and at IRAK4 [2] was 98% throughout. Moreover, the half-maximal degradation concentration (DC50) on IRAK4 [1] (setting [6]) worked out at 1.3 nM; on IRAK4 [2], 19 nM.
For `CC(C)(O)c1cc2nn([C@H]3CC[C@H](N4CCN(C(=O)C5CN(c6ccc(N7CCC(=O)NC7=O)cc6)C5)CC4)CC3)cc2cc1NC(=O)c1ccc2cc(C#N)cnn12` [Example 265, 3-cyano-N-(2-((1r,4r)-4-(4-(1-(4-(2,4-dioxotetrahydropyrimidin-1(2H)-yl)phenyl)azetidine-3-carbonyl)piperazin-1-yl)cyclohexyl)-6-(2-hydroxypropan-2-yl)-2H-indazol-5-yl)pyrrolo[1,2-b]pyridazine-7-carboxamide], the Dmax at IRAK4 [1] (setting [5]) came to 97%; on IRAK4 [2] it was 99%. For the same compound, the values for the DC50 at IRAK4 [1] (setting [6]) and on IRAK4 [2] were 2.6 nM and 21 nM, respectively.
On the same counts, the results for `COc1cc(N2CC(C(=O)N3CCN([C@H]4CC[C@H](n5cc6cc(NC(=O)c7ccc8cc(C#N)cnn78)c(C(C)(C)O)cc6n5)CC4)CC3)C2)c(F)cc1N1CCC(=O)NC1=O` [Example 258, 3-cyano-N-(2-((1r,4r)-4-(4-(1-(4-(2,4-dioxotetrahydropyrimidin-1(2H)-yl)-2-fluoro-5-methoxyphenyl)azetidine-3-carbonyl)piperazin-1-yl)cyclohexyl)-6-(2-hydroxypropan-2-yl)-2H-indazol-5-yl)pyrrolo[1,2-b]pyridazine-7-carboxamide] are 96%, 97%, 2.6 nM and 21 nM.
On the same counts, the results for `C[C@H]1CN(CC2CN(c3cc(F)c([C@H]4CCC(=O)NC4=O)c(F)c3)C2)CCN1[C@H]1CC[C@H](n2cc3cc(NC(=O)c4ccc5cc(C#N)cnn45)c(C(C)(C)O)cc3n2)CC1` [Example 306, 3-cyano-N-(2-((1S,4r)-4-((S)-4-((1-(4-((R)-2,6-dioxopiperidin-3-yl)-3,5-difluorophenyl)azetidin-3-yl)methyl)-2-methylpiperazin-1-yl)cyclohexyl)-6-(2-hydroxypropan-2-yl)-2H-indazol-5-yl)pyrrolo[1,2-b]pyridazine-7-carboxamide] are 98%, 100%, 1.3 nM and 8.3 nM.
